Measurements taken from US20040152739A1, “Acyclic pyrazole compounds for the inhibition of mitogen activated protein kinase-activated protein kinase-2” (priority 2002, published 2004).
pIC50: −log10 of the molar value. Where a name gives a salt, the structure may show the parent alone.

Target: MK-2 (Homo sapiens, UniProt P49137)
Test: Determination of MK-2 IC50 (anion exchange resin capture assay, HSP-peptide phosphorylation)
Format: biochemical
Settings: read-out: MK-2 Avg. IC50
Method: The phosphorylation of HSP-peptide ([sequence]) by MAPKAPK2 was measured using an anion exchange resin capture assay method. […] The reaction was terminated and [γ^33P]ATP was removed from solution by the addition of 150 μl of AG 1×8 ion exchange resin in 900 mM sodium formate pH 3.0. A 50 μl aliquot of head volume was removed from the quenched reaction mixture and added to a 96-well plate, 150 μl of Microscint-40 (Packard) was added and the amount of phosphorylated-peptide was determined. Allow the Microscint to sit in the plates for 60 minutes prior to counting.
Compounds are evaluated as potential inhibitors of the MK2 kinase by measuring their effects on MK2 phosphorylation of the peptide substrate. Compounds may be screened initially at two concentrations prior to determination of IC50 values. Screening results are expressed as percent inhibition at the concentrations of compound tested. For IC50 value determinations, compounds are tested at six concentrations in ten-fold serial dilutions with each concentration tested in triplicate. Results are expressed as IC50 values in micromolar. The assay is performed at a final concentration of 2% DMSO.
Compounds are evaluated as potential inhibitors of the MK-2 kinase by measuring their effects on MK-2 phosphorylation of the peptide substrate. Compounds may be screened initially at two concentrations prior to determination of IC50 values. Screening results are expressed as percent inhibition at the concentrations of compound tested. For IC50 value determinations, compounds are tested at six concentrations in ten-fold serial dilutions with each concentration tested in triplicate. Results are expressed as IC50 values in micromolar. The assay is performed at a final concentration of 2% DMSO.

MK-2, sequence (P49137 whole entry, species assumed): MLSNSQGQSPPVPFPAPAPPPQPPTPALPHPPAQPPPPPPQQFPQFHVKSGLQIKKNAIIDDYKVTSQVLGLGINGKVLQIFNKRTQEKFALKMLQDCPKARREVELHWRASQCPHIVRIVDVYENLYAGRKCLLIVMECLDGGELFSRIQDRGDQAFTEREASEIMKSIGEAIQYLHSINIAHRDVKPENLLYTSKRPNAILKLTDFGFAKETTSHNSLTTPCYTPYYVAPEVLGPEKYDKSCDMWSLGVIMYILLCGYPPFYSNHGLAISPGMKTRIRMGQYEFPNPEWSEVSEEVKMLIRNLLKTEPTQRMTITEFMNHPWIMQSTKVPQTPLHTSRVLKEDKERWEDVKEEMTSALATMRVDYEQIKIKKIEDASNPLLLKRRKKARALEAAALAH

SMILES | pIC50
O=C1NCCn2nc(-c3ccnc(-c4ccc(F)cc4F)c3)cc21 [Example 89, dihydrochloride] | 5.58
Cc1cn(-c2cc(-c3cc4n(n3)CCCNC4=O)ccn2)cn1 [Example 90] | 5.56
O=C1NCCn2nc(-c3ccnc(-c4ccc[nH]4)c3)cc21 [Example 91, dihydrochloride] | 5.55
Cc1cc2cc(-c3cc(-c4cc5n(n4)CCNC5=O)ccn3)ccc2[nH]1 [Example 92] | 5.55
O=C1NCCn2nc(-c3ccnc(-c4ccccc4F)c3)cc21 [Example 93] | 5.53
O=C1NCCn2nc(-c3ccnc(-c4ccc(CN5CCOCC5)cc4)c3)cc21 [Example 94, bis(trifluoroacetate)] | 5.52
CCOC(=O)N1CCN(CCOc2cccc(-c3cc(-c4cc5n(n4)CCNC5=O)ccn3)c2)CC1 [Example 95, trifluoroacetate] | 5.52
CCOC(=O)c1cc(-c2ccnc(-c3ccc(CO)cc3)c2)nn1CCN [Example 96, trifluoroacetate] | 5.49
NCc1cccc(-c2cc(-c3cc4n(n3)CCNC4=O)ccn2)c1 [Example 97, trifluoroacetate] | 5.49
O=C1NCCn2nc(-c3ccnc(-c4cccc(OCCN5CCCC5)c4)c3)cc21 [Example 98, 2-{2-[3-(2-pyrrolidin-1-ylethoxy)phenyl]pyridin-4-yl}-6,7-dihydropyrazolo[1,5-a]pyrazin-4(5H)-one] | 5.49
CC(=O)Nc1cccc(-c2cc(-c3cc4n(n3)CCNC4=O)ccn2)c1 [Example 99, N-{3-[4-(4-oxo-4,5,6,7-tetrahydropyrazolo[1,5-a]pyrazin-2-yl)pyridin-2-yl]phenyl}acetamide] | 5.48
CN(C)c1ccc(-c2cc(-c3cc4n(n3)CCCNC4=O)ccn2)cc1 [Example 100, 2-{2-[4-(dimethylamino)phenyl]pyridin-4-yl}-5,6,7,8-tetrahydro-4H-pyrazolo[1,5-a][1,4]diazepin-4-one trifluoroacetate] | 5.46
O=C1NCCn2nc(-c3ccnc(-c4ccc(C(=O)N5CCOCC5)cc4)c3)cc21 [Example 101, 2-{2-[4-(morpholin-4-ylcarbonyl)phenyl]pyridin-4-yl}-6,7-dihydropyrazolo[1,5-a]pyrazin-4(5H)-one] | 5.44
O=C(O)CCc1ccc(-c2cc(-c3cc4n(n3)CCNC4=O)ccn2)cc1 [Example 102, 3-{4-[4-(4-oxo-4,5,6,7-tetrahydropyrazolo[1,5-a]pyrazin-2-yl)pyridin-2-yl]phenyl}propanoic acid] | 5.38
O=C1NCCn2nc(-c3ccnc(-n4cccn4)c3)cc21 [Example 103, 2-[2-(1H-pyrazol-1-yl)pyridin-4-yl]-6,7-dihydropyrazolo[1,5-a]pyrazin-4(5H)-one] | 5.38
O=C1NCCn2nc(-c3ccnc(-c4nc5ccccc5s4)c3)cc21 [Example 104, 2-[2-(1,3-benzothiazol-2-yl)pyndin-4-yl]-6,7-dihydropyrazolo[1,5-a]pyrazin-4(5H)-one] | 5.37
O=C1NCCCn2nc(-c3ccnc(-n4cnc(-c5ccccc5)c4)c3)cc21 [Example 105, 2-[2-(4-phenyl-1H-imidazol-1-yl)pyridin-4-yl]-5,6,7,8-tetrahydro-4H-pyrazolo[1,5-a][1,4]diazepin-4-one trifluoroacetate] | 5.37
O=C1NCCCn2nc(-c3ccnc(-c4cccc(CO)c4)c3)cc21 [Example 106, 2-{2-[3-(hydroxymethyl)phenyl]pyridin-4-yl}-5,6,7,8-tetrahydro-4H-pyrazolo[1,5-a][1,4]diazepin-4-one trifluoroacetate] | 5.34
O=C1NC(CO)Cn2nc(-c3ccnc(C4CNc5ccccc5C4)c3)cc21 (centres unmarked) [Example 107, 6-(hydroxymethyl)-2-[2-(1,2,3,4-tetrahydroquinolin-3-yl)pyridin-4-yl]-6,7-dihydropyrazolo[1,5-a]pyrazin-4(5H)-one] | 5.31
CCOC(=O)c1cc(-c2ccnc(-c3cccc(O)c3)c2)nn1CCN [Example 108, ethyl 1-(2-aminoethyl)-3-[2-(3-hydroxyphenyl)pyridin-4-yl]-1H-pyrazole-5-carboxylate dihydrochloride] | 5.30
CCOC(=O)c1cc(-c2ccnc(-c3cccc(OC)c3)c2)nn1CCN [Example 110, ethyl 1-(2-aminoethyl)-3-[2-(3-methoxyphenyl)pyridin-4-yl]-1H-pyrazole-5-carboxylate dihydrochloride] | 5.28
O=C1NCCn2nc(-c3ccnc(-c4ccccn4)c3)cc21 [Example 111, 2-(2,2′-bipyridin-4-yl)-6,7-dihydropyrazolo[1,5-a]pyrazin-4(5H)-one] | 5.27

SMILES | pIC50
CN(C)Cc1ccc(-c2cc(-c3cc4n(n3)CCNC4=O)ccn2)cc1 [Example 112, 2-(2-{4-[(dimethylamino)methyl]phenyl}pyridin-4-yl)-6,7-dihydropyrazolo[1,5-a]pyrazin-4(5H)-one trifluoroacetate] | 5.27
O=C1NCCCn2nc(-c3ccnc(-n4ccnc4)c3)cc21 [Example 113, 2-[2-(1H-imidazol-1-yl)pyridin-4-yl]-5,6,7,8-tetrahydro-4H-pyrazolo[1,5-a][1,4]diazepin-4-one hydrochloride] | 5.25
O=C1NCCn2nc(-c3ccnc(-c4cccc(CNCCO)c4)c3)cc21 [Example 114, 2-[2-(3-{[(2-hydroxyethyl)amino]methyl}phenyl)pyridin-4-yl]-6,7-dihydropyrazolo[1,5-a]pyrazin-4(5H)-one] | 5.24
CC(C)NCc1cccc(-c2cc(-c3cc4n(n3)CCNC4=O)ccn2)c1 [Example 115, 2-(2-{3-[(isopropylamino)methyl]phenyl}pyridin-4-yl)-6,7-dihydropyrazolo[1,5-a]pyrazin-4(5H)-one] | 5.20
O=C1NCCn2nc(-c3ccnc(-c4cccc(OCCN5CCOCC5)c4)c3)cc21 [Example 116, 2-{2-[3-(2-morpholin-4-ylethoxy)phenyl]pyridin-4-yl}-6,7-dihydropyrazolo[1,5-a]pyrazin-4(5H)-one] | 5.17
O=C1NCCn2nc(-c3ccnc(-n4cnc(-c5ccccc5)c4)c3)cc21 [Example 117, 2-[2-(4-phenyl-1H-imidazol-1-yl)pyridin-4-yl]-6,7-dihydropyrazolo[1,5-a]pyrazin-4(5H)-one] | 5.15
NCCn1nc(-c2ccnc(-c3ccc(CO)cc3)c2)cc1C(=O)NO [Example 118, 1-(2-aminoethy)-N-hydroxy-3-{2-[4-(hydroxymethyl)phenyl]pyridin-4-yl}-1H-pyrazole-5-carboxamide trifluoroacetate] | 5.10
NCCCn1nc(-c2ccc(O)cc2)cc1C(=O)O [Example 119, 1-(3-aminopropyl)-3-(4-hydroxyphenyl)-1H-pyrazole-5-carboxylic acid dihydrochloride] | 5.09
O=C1NCCn2nc(-c3ccnc(-c4nc5ccccc5[nH]4)c3)cc21 [Example 120, 2-[2-(1H-benzimidazol-2-yl)pyndin-4-yl]-6,7-dihydropyrazolo[1,5-a]pyrazin-4(5H)-one] | 5.05
O=C1NCCCn2nc(-c3ccnc(-n4ccnn4)c3)cc21 [Example 121, 2-[2-(1H-1,2,3-triazol-1-yl)pyridin-4-yl]-5,6,7,8-tetrahydro-4H-pyrazolo[1,5-a][1,4]diazepin-4-one hydrochloride] | 5.04
O=C1NCCCn2nc(-c3ccncc3)cc21 [Example 122, 2-pyridin-4-yl-5,6,7,8-tetrahydro-4H-pyrazolo[1,5-a][1,4]diazepin-4-one] | 5.00
O=C1NCCCn2nc(-c3ccnc(-n4cccc4)c3)cc21 [Example 123, 2-[2-(1H-pyrrol-1-yl)pyridin-4-yl]-5,6,7,8-tetrahydro-4H-pyrazolo[1,5-a][1,4]diazepin-4-one trifluoroacetate] | 4.97
NCCCn1nc(-c2ccnc(-c3cnc4ccccc4c3)c2)cc1C(N)=O [Example 124, 1-(3-aminopropyl)-3-(2-quinolin-3-ylpyridin-4-yl)-1H-pyrazole-5-carboxamide dihydrochloride] | 4.97
O=C1NCCn2nc(-c3ccnc(-c4cccc(CN5CCOCC5)c4)c3)cc21 [Example 125, 2-{2-[3-(morpholin-4-ylmethyl)phenyl]pyridin-4-yl]-6,7-dihydropyrazolo[1,5-a]pyrazin-4(5H)-one] | 4.94
N#Cc1cc(-c2cc3n(n2)CCNC3=O)ccn1 [Example 126, 4-(4-oxo-4,5,6,7-tetrahydropyrazolo[1,5-a]pyrazin-2-yl)pyridine-2-carbonitrile] | 4.86
CCCn1nc(-c2ccnc(-n3ccnc3)c2)cc1C(=O)O [Example 127, 3-[2-(1H-imidazol-1-yl)pyridin-4-yl]-1-propyl-1H-pyrazole-5-carboxylic acid] | 4.84
CN(C)Cc1cccc(-c2cc(-c3cc4n(n3)CCNC4=O)ccn2)c1 [Example 128, 2-(2-{3-[(dimethylamino)methyl]phenyl}pyridin-4-yl)-6,7-dihydropyrazolo[1,5-a]pyrazin-4(5H)-one trifluoroacetate] | 4.81
O=C1NCCn2nc(-c3ccnc(-c4cccc(OCc5ccccc5)c4)c3)cc21 [Example 129, 2-{2-[3-(benzyloxy)phenyl]pyridin-4-yl}-6,7-dihydropyrazolo[1,5-a]pyrazin-4(5H)-one] | 4.81
O=C1NCCCn2nc(-c3ccnc(-n4cccn4)c3)cc21 [Example 130, 2-[2-(1H-pyrazol-1-yl)pyridin-4-yl]-5,6,7,8-tetrahydro-4H-pyrazolo[1,5-a][1,4]diazepin-4-one hydrochloride] | 4.79
CCOC(=O)c1cc(-c2ccncc2)nn1CCN [Example 133, ethyl 1-(2-aminoethyl)-3-pyridin-4-yl-1H-pyrazole-5-carboxylate dihydrochloride] | 4.61
Cc1ccc(C(C)CCNCCn2nc(-c3ccncc3)cc2C(=O)O)o1 (centres unmarked) [Example 134, 1-(2-{[3-(5-methyl-2-furyl)butyl]amino}ethyl)-3-pyridin-4-yl-1H-pyrazole-5-carboxylic acid trifluoroacetate] | 4.57
O=C1NCCCn2nc(-c3ccnc(-n4cncn4)c3)cc21 [Example 135, 2-[2-(1H-1,2,4-triazol-1-yl)pyridin-4-yl]-5,6,7,8-tetrahydro-4H-pyrazolo[1,5-a][1,4]diazepin-4-one hydrochloride] | 4.55
